Assay results reported in patent US6737383B1, “Herbicidal oxadiazolidines” (priority 1999, dated 2004).

Legend:
wheat = test: Test B pre/postemergence wheat; type: in vivo, Triticum aestivum
Method in brief: (§1)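 Herbicidal effect was estimated by eye on a ten-point control scale after plants spent twelve to sixteen days in a greenhouse following soil or foliar treatment. Foliar sprays targeted plants at one to four leaves; all doses were formulated in a non-phytotoxic solvent with surfactant.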

velvetleaf = test: Test B pre/postemergence velvetleaf; type: in vivo, Abutilon theophrasti
Method in brief: as §1

rice = test: Test B flood test rice; type: in vivo, Oryza sativa
Method in brief: (§2)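 Read-out is a visual response score from 0 (no effect) to 10 (complete control), assigned by comparison with untreated controls. Treatment was applied at the 2-leaf stage, and plants stayed in the greenhouse for twelve to sixteen days before scoring.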

duck salad = test: Test B flood test duck salad; type: in vivo, Heteranthera limosa
Method in brief: as §2

soybean = test: Test B pre/postemergence soybean; type: in vivo, Glycine max
Method in brief: as §1

crabgrass = test: Test B pre/postemergence crabgrass; type: in vivo, Digitaria sanguinalis
Method in brief: as §1

smallflower flatsedge = test: Test B flood test smallflower flatsedge; type: in vivo, Cyperus difformis
Method in brief: as §2

giant foxtail = test: Test B pre/postemergence giant foxtail; type: in vivo, Setaria faberii
Method in brief: as §1

purple nutsedge = test: Test B pre/postemergence purple nutsedge; type: in vivo, Cyperus rotundus
Method in brief: as §1

bedstraw = test: Test B pre/postemergence bedstraw; type: in vivo, Galium aparine; conditions: for Plant response rating, Bedstraw: Postemergence
Method in brief: as §1

pigweed = test: Test B pre/postemergence pigweed; type: in vivo, Amaranthus retroflexus
Method in brief: as §1

wild oat = test: Test B pre/postemergence wild oat; type: in vivo, Avena fatua
Method in brief: as §1

rape = test: Test B pre/postemergence rape; type: in vivo, Brassica napus
Method in brief: as §1

corn = test: Test B pre/postemergence corn; type: in vivo, Zea mays
Method in brief: as §1

cocklebur = test: Test B pre/postemergence cocklebur; type: in vivo, Xanthium strumarium
Method in brief: as §1

morningglory = test: Test B pre/postemergence morningglory; type: in vivo, Ipomoea hederacea
Method in brief: as §1

[1] = Postemergence, Rate 62 g/ha, scale 0 to 10, 0 is no effect, 10 is complete control
[2] = Postemergence, Rate 125 g/ha, scale of 0 to 10 where 0 is no effect and 10 is complete control
[3] = Postemergence, Rate 250 g/ha, scale of 0 to 10, 0 is no effect, 10 is complete control
[4] = Postemergence, Rate 500 g/ha, scale of 0 to 10 where 0 is no effect and 10 is complete control
[5] = Preemergence, Rate 62 g/ha, scale 0 to 10 (0 no effect, 10 complete control)
[6] = Preemergence, Rate 125 g/ha, scale of 0 to 10 where 0 is no effect and 10 is complete control
[7] = Preemergence, Rate 500 g/ha, scale of 0 to 10 where 0 is no effect and 10 is complete control
[8] = Rate 62 g/ha, flood test species, Pre-emergence, visual evaluation after twelve to sixteen days
[9] = Rate 125 g/ha, under heading Pre-emergence, flood test species, visual evaluation after twelve to sixteen days
[10] = Rate 250 g/ha, Pre-emergence (flood test species), scale 0 to 10, 0 is no effect, 10 is complete control
[11] = Rate 500 g/ha, Pre-emergence section of Table B, 0 to 10 scale (0 no effect, 10 complete control)

C#CC(C)n1c(=O)on(C(=O)N(c2ccccc2)C(C)C)c1=O (stereo not shown) [Compound 609]
4: Soybean plant response rating (soybean; [5]) | Plant response rating, Nutsedge (purple nutsedge; [7]) | Bedstraw plant response rating (bedstraw; [5]) | Plant response rating, Wild oats (wild oat; [4])
8: Plant response rating, Velvetleaf (velvetleaf; [4]) | Velvetleaf plant response rating (velvetleaf; [6]) | Bedstraw plant response rating (bedstraw; [6]) | Bedstraw plant response rating (0 to 10 scale) (bedstraw; Preemergence, Rate 250 g/ha) | Redroot pigweed plant response rating (pigweed; [5]) | Plant response rating, Morningglory (morningglory; [1])
3: Plant response rating, Velvetleaf (velvetleaf; [1]) | Plant response rating, Velvetleaf (velvetleaf; [2]) | Wild oats plant response rating (wild oat; [5]) | Plant response rating, Rape (rape; [4]) | Plant response rating, Cocklebur (cocklebur; [4]) | Plant response rating, Cocklebur (cocklebur; [7])
5: Plant response rating, Soybean (soybean; [1]) | Plant response rating, Crabgrass (crabgrass; [1]) | Plant response rating, Morningglory (morningglory; [7])
2: Wheat plant response rating (wheat; [3]) | Redroot pigweed plant response rating (pigweed; [3]) | Corn plant response rating (corn; [3]) | Corn plant response rating (corn; [5]) | Corn plant response rating (corn; [6]) | Cocklebur plant response rating (cocklebur; [3])
6: Plant response rating, Wheat (wheat; [4]) | Plant response rating, Wheat (wheat; [7]) | Plant response rating, Soybean (soybean; [2]) | Soybean plant response rating (soybean; [6]) | Plant response rating, Giant foxtail (giant foxtail; [1]) | Plant response rating, Nutsedge (purple nutsedge; [4]) | Corn plant response rating (0 to 10 scale) (corn; Preemergence, Rate 250 g/ha)
7: Velvetleaf plant response rating (velvetleaf; [3]) | Velvetleaf plant response rating (velvetleaf; [5]) | Plant response rating, Soybean (soybean; [4]) | Plant response rating, Soybean (soybean; [7]) | Crabgrass plant response rating (crabgrass; [5]) | Crabgrass plant response rating (crabgrass; [6]) | Wild oats plant response rating (wild oat; [6]) | Plant response rating, Corn (corn; [4])
0: Plant response rating, Wheat (wheat; [1]) | Plant response rating, Wheat (wheat; [2]) | Wheat plant response rating (wheat; [5]) | Wheat plant response rating (wheat; [6]) | Plant response rating, Rice (0 to 10 scale, 0 is no effect, 10 is complete control) (rice; [8]) | Rice plant response rating (0 to 10 scale, 0 is no effect, 10 is complete control) (rice; [9]) | Rice plant response rating (rice; [10]) | Rice plant response rating (rice; [11]) | Plant response rating, Ducksalad (0 to 10 scale, 0 is no effect, 10 is complete control) (duck salad; [8]) | Ducksalad plant response rating (0 to 10 scale, 0 is no effect, 10 is complete control) (duck salad; [9]) | Ducksalad plant response rating (duck salad; [10]) | Ducksalad plant response rating (duck salad; [11]) | Plant response rating, S. Flatsedge (0 to 10 scale, 0 is no effect, 10 is complete control) (smallflower flatsedge; [8]) | S. Flatsedge plant response rating (0 to 10 scale, 0 is no effect, 10 is complete control) (smallflower flatsedge; [9]) | S. Flatsedge plant response rating (smallflower flatsedge; [10]) | S. Flatsedge plant response rating (smallflower flatsedge; [11]) | Plant response rating, Nutsedge (purple nutsedge; [1]) | Plant response rating, Nutsedge (purple nutsedge; [2]) | Nutsedge plant response rating (purple nutsedge; [3]) | Nutsedge plant response rating (purple nutsedge; [5]) | Nutsedge plant response rating (purple nutsedge; [6]) | Plant response rating, Bedstraw (bedstraw; Rate 62 g/ha, scale 0 to 10, 0 is no effect, 10 is complete control) | Plant response rating, Bedstraw (bedstraw; Rate 125 g/ha, scale of 0 to 10 where 0 is no effect and 10 is complete control) | Plant response rating, Redroot pigweed (pigweed; [1]) | Plant response rating, Redroot pigweed (pigweed; [2]) | Plant response rating, Wild oats (wild oat; [1]) | Plant response rating, Wild oats (wild oat; [2]) | Wild oats plant response rating (wild oat; [3]) | Plant response rating, Rape (rape; [1]) | Plant response rating, Rape (rape; [2]) | Rape plant response rating (rape; [5]) | Rape plant response rating (rape; [6]) | Plant response rating, Corn (corn; [1]) | Plant response rating, Corn (corn; [2]) | Plant response rating, Cocklebur (cocklebur; [1]) | Cocklebur plant response rating (cocklebur; [5]) | Cocklebur plant response rating (cocklebur; [6]) | Cocklebur plant response rating (0 to 10 scale) (cocklebur; Preemergence, Rate 250 g/ha) | Morningglory plant response rating (morningglory; [5]) | Morningglory plant response rating (morningglory; [6])
10: Giant foxtail plant response rating (giant foxtail; [5]) | Giant foxtail plant response rating (giant foxtail; [6]) | Plant response rating, Giant foxtail (giant foxtail; [7]) | Plant response rating, Redroot pigweed (pigweed; [7]) | Plant response rating, Wild oats (wild oat; [7]) | Plant response rating, Rape (rape; [7]) | Plant response rating, Morningglory (morningglory; [2]) | Morningglory plant response rating (morningglory; [3]) | Plant response rating, Morningglory (morningglory; [4])
9: Plant response rating, Velvetleaf (velvetleaf; [7]) | Plant response rating, Crabgrass (crabgrass; [2]) | Crabgrass plant response rating (crabgrass; [3]) | Plant response rating, Crabgrass (crabgrass; [7]) | Plant response rating, Giant foxtail (giant foxtail; [2]) | Giant foxtail plant response rating (giant foxtail; [3]) | Plant response rating, Giant foxtail (giant foxtail; [4]) | Plant response rating, Redroot pigweed (pigweed; [4]) | Plant response rating, Corn (corn; [7])
1: Rape plant response rating (rape; [3]) | Plant response rating, Cocklebur (cocklebur; [2])
